Results taken from US11897904B2, “Herbicidally active bicyclic benzamides” (Bayer Aktiengesellschaft, priority 2017, dated 2024).

Legend:
ABUTH [1] = assay: Pre-emergence herbicidal action; assay type: in vivo, Abutilon theophrasti; conditions: pre-emergence, 320 g/ha, scored visually after about 3 weeks vs untreated controls
Description: (§1) 1. Pre-Emergence Herbicidal Action and Crop Plant Compatibility
(§2) Seeds of monocotyledonous and dicotyledonous weed plants and crop plants are placed in plastic or organic planting pots and covered with soil. The compounds of the invention, formulated in the form of wettable powders (WP) or as emulsion concentrates (EC), are then applied onto the surface of the covering soil as aqueous suspension or emulsion with addition of 0.5% additive at a water application rate of 600 l/ha (converted). After the treatment, the pots are placed in a greenhouse and kept under good growth conditions for the trial plants. After about 3 weeks, the effect of the preparations is scored visually in comparison with untreated controls as percentages. The tables below show the herbicidal activity of numerous compounds according to the invention against important harmful plants. For example, 100% activity=the plants have died, 0% activity=like control plants.

AMARE [2] = assay: Pre-emergence herbicidal action; assay type: in vivo, Amaranthus retroflexus; conditions: 320 g/ha, scored visually after about 3 weeks vs untreated controls
Description: as §1, §2

CYPES = assay: Pre-emergence herbicidal action; assay type: in vivo, Cyperus esculentus; conditions: dosage 320 g/ha, scored visually after about 3 weeks vs untreated controls, 100% = plants have died, 0% = like control plants
Description: as §1, §2

ECHCG [3] = assay: Pre-emergence herbicidal action; assay type: in vivo, Echinochloa crus-galli; conditions: 320 g/ha, scored visually after about 3 weeks vs untreated controls
Description: as §1, §2

MATIN [4] = assay: Pre-emergence herbicidal action; assay type: in vivo, Matricaria inodora; conditions: pre-emergence, 320 g/ha, scored visually after about 3 weeks vs untreated controls
Description: as §1, §2

SETVI [5] = assay: Pre-emergence herbicidal action; assay type: in vivo, Setaria viridis; conditions: pre-emergence, 320 g/ha, scored visually after about 3 weeks vs untreated controls
Description: as §1, §2

STEME [6] = assay: Pre-emergence herbicidal action; assay type: in vivo, Stellaria media; conditions: 320 g/ha, scored visually after about 3 weeks vs untreated controls
Description: as §1, §2

VIOTR [7] = assay: Pre-emergence herbicidal action; assay type: in vivo, Viola tricolor; conditions: 320 g/ha, scored visually after about 3 weeks vs untreated controls
Description: as §1, §2

ABUTH [8] = assay: Post-emergence herbicidal action; assay type: in vivo, Abutilon theophrasti; conditions: post-emergence, 80 g/ha, rated visually after about 3 weeks vs untreated controls
Method: (§3) 2. Post-Emergence Herbicidal Action and Crop Plant Compatibility
(§4) Seeds of monocotyledonous and dicotyledonous weeds and crop plants are placed in sandy loam in plastic or organic planting pots, covered with soil and cultivated in a greenhouse under controlled growth conditions. 2 to 3 weeks after sowing, the test plants are treated at the one-leaf stage. The compounds of the invention, formulated in the form of wettable powders (WP) or as emulsion concentrates (EC), are then sprayed onto the green parts of the plants as aqueous suspension or emulsion with addition of 0.5% additive at a water application rate of […] (converted). After the test plants had been kept in the greenhouse under optimum growth conditions for about 3 weeks, the activity of the preparations is rated visually in comparison to untreated controls. The tables below show the herbicidal activity of numerous compounds according to the invention against important harmful plants. For example, 100% activity=the plants have died, 0% activity=like control plants.

AMARE [9] = assay: Post-emergence herbicidal action; assay type: in vivo, Amaranthus retroflexus; conditions: 80 g/ha, rated visually after about 3 weeks vs untreated controls
Method: as §3, §4

ECHCG [10] = assay: Post-emergence herbicidal action; assay type: in vivo, Echinochloa crus-galli; conditions: 80 g/ha, rated visually after about 3 weeks vs untreated controls
Method: as §3, §4

MATIN [11] = assay: Post-emergence herbicidal action; assay type: in vivo, Matricaria inodora; conditions: 80 g/ha, rated visually after about 3 weeks vs untreated controls
Method: as §3, §4

PHBPU = assay: Post-emergence herbicidal action; assay type: in vivo, Ipomoea purpurea; conditions: 80 g/ha, rated visually after about 3 weeks vs untreated controls
Method: as §3, §4

SETVI [12] = assay: Post-emergence herbicidal action; assay type: in vivo, Setaria viridis; conditions: 80 g/ha, rated visually after about 3 weeks vs untreated controls
Method: as §3, §4

STEME [13] = assay: Post-emergence herbicidal action; assay type: in vivo, Stellaria media; conditions: 80 g/ha, rated visually after about 3 weeks vs untreated controls
Method: as §3, §4

VIOTR [14] = assay: Post-emergence herbicidal action; assay type: in vivo, Viola tricolor; conditions: 80 g/ha, rated visually after about 3 weeks vs untreated controls
Method: as §3, §4

VERPE [15] = assay: Pre-emergence herbicidal action; assay type: in vivo, Veronica persica; conditions: 320 g/ha, scored visually after about 3 weeks vs untreated controls
Description: as §1, §2

VERPE [16] = assay: Post-emergence herbicidal action; assay type: in vivo, Veronica persica; conditions: 80 g/ha, rated visually after about 3 weeks vs untreated controls
Method: as §3, §4

Structure (SMILES) | herbicidal activity ABUTH (ABUTH [1]) | herbicidal activity AMARE (AMARE [2]) | herbicidal activity CYPES (CYPES) | herbicidal activity ECHCG (ECHCG [3]) | herbicidal activity MATIN (MATIN [4]) | herbicidal activity SETVI (SETVI [5]) | herbicidal activity STEME (STEME [6]) | herbicidal activity VIOTR (VIOTR [7]) | herbicidal activity ABUTH (ABUTH [8]) | herbicidal activity AMARE (AMARE [9]) | herbicidal activity ECHCG (ECHCG [10]) | herbicidal activity MATIN (MATIN [11]) | herbicidal activity PHBPU (PHBPU) | herbicidal activity SETVI (SETVI [12]) | herbicidal activity STEME (STEME [13]) | herbicidal activity VIOTR (VIOTR [14]) | herbicidal activity VERPE (VERPE [15]) | herbicidal activity VERPE (VERPE [16])
CC1Oc2c(C(=O)Nc3nnnn3C)ccc(C(F)(F)F)c2S1(=O)=O (stereo not drawn) [Example 2-106] | 100% | 100% | 90% | 90% | 100% | 90% | 90% | 100% | 90% | 100% | 100% | 90% | 80% | 100% | 100% | 100% | – | –
Cn1nnnc1NC(=O)c1ccc(C(F)F)c2c1OC[S+]2[O-] (stereo not drawn) [Example 2-69] | 100% | 100% | – | 90% | 90% | 90% | 90% | 100% | 90% | 90% | 100% | 90% | 80% | 80% | 100% | 100% | 90% | 90%
Cc1ccc(C(=O)Nc2nnnn2C)c2c1[S+]([O-])CO2 (stereo not drawn) [Example 2-65] | – | 90% | 90% | – | – | – | – | – | – | – | – | – | – | – | – | – | 80% | –
CCn1nnnc1NC(=O)c1ccc(C(F)(F)F)c2c1OCS2(=O)=O [Example 3-82] | 90% | 100% | 90% | 100% | 100% | – | 100% | 100% | – | 100% | 80% | 100% | 90% | – | 100% | 100% | 100% | 100%
Cn1nnnc1NC(=O)c1ccc(C(F)(F)F)c2c1OCS2(=O)=O [Example 2-83] | 100% | 100% | 100% | 100% | 90% | 100% | 100% | 100% | 90% | 100% | 90% | 100% | 90% | 90% | 100% | 100% | 100% | 90%
CCn1nnnc1NC(=O)c1ccc(C(F)(F)F)c2c1OCS2 [Example 3-52] | 90% | 100% | – | 90% | 90% | 90% | 100% | 90% | 80% | 100% | 100% | 90% | 100% | 100% | 100% | 100% | 80% | 100%
CCn1nnnc1NC(=O)c1ccc(C(F)(F)F)c2c1OC[S+]2[O-] (stereo not drawn) [Example 3-67] | 90% | 100% | 80% | 100% | 90% | 80% | 100% | 100% | 80% | 100% | 100% | 90% | 100% | – | 100% | 100% | 100% | 100%
Cn1nnnc1NC(=O)c1ccc(C(F)(F)F)c2c1OC[S+]2[O-] (stereo not drawn) [Example 2-68, 4-(trifluoromethyl)-1,3-benzoxathiolane-N-(1-methyltetrazol-5-yl)-7-carboxamide 3-oxide] | 90% | 100% | 90% | 90% | 90% | 100% | 90% | 100% | – | 100% | 100% | 90% | 90% | 90% | 100% | 100% | 100% | 100%
